The record followed here is paper PMC9851200, “Multiparameter phenotypic screening for endogenous TFEB and TFE3 translocation identifies novel chemical series modulating lysosome function” (Autophagy, 2022).

Common to all, as to type: binding
The target of test [1] is kinases (KINOMEscan panel) (Homo sapiens, UniProt Q9UM73, C1156Y). The conditions noted are these: kinase ALK(C1156Y); NEW KINOMEscan.
The target in test [2] is T1, kinases (KINOMEscan panel) (Homo sapiens, UniProt Q92630).
T1 sequence (Q92630 1-601): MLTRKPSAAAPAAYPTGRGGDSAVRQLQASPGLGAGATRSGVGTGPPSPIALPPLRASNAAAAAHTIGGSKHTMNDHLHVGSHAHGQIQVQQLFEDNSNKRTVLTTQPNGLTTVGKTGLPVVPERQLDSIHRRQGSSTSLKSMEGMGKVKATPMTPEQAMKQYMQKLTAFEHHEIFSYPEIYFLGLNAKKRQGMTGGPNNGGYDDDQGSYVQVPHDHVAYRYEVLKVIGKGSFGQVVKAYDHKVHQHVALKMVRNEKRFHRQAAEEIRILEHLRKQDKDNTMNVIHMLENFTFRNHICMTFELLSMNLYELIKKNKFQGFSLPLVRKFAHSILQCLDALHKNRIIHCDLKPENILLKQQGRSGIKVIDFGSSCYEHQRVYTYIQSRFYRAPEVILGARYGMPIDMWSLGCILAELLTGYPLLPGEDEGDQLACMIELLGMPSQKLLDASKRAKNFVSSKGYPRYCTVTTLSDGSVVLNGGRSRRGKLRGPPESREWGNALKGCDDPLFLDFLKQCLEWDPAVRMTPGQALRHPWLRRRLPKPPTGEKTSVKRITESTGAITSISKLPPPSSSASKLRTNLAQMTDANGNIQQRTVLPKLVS
The conditions noted are these: DYRK2; NEW KINOMEscan.

For test [3], the target named is T2, kinases (KINOMEscan panel) (Homo sapiens, UniProt P29323).
T2 sequence (P29323 19-1055): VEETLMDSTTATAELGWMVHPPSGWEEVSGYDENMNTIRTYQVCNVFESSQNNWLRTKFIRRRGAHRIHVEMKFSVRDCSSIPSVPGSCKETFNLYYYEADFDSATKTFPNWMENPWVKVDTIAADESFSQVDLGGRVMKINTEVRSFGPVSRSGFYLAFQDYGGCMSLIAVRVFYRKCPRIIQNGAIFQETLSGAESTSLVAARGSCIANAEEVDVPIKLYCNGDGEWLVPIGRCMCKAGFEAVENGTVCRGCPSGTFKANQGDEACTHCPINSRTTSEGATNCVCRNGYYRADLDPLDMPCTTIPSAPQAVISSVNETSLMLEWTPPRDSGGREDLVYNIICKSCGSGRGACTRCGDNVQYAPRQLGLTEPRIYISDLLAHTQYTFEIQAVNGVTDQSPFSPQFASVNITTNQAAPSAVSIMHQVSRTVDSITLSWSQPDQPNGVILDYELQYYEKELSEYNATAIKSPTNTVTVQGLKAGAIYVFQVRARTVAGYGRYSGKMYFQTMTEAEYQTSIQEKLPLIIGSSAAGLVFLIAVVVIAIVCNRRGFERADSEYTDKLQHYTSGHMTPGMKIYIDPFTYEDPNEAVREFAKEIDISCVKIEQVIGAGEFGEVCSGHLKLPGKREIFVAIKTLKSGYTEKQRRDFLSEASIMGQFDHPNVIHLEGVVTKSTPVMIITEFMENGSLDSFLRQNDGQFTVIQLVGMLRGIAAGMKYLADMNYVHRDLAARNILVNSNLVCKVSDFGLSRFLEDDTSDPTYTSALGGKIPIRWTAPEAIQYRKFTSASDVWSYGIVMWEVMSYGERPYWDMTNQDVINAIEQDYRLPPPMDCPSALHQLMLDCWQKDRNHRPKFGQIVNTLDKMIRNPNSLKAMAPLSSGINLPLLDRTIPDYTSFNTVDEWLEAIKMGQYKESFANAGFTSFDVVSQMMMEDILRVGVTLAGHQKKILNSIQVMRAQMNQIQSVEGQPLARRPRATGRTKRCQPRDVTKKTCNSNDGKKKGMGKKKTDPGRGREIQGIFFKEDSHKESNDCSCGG
To be noted: EPHB2; NEW KINOMEscan.

Test [4] addresses kinases (KINOMEscan panel) (Homo sapiens, UniProt Q96RR4). The conditions noted are these: CAMKK2; NEW KINOMEscan.
In test [5] the target is T3, kinases (KINOMEscan panel) (Homo sapiens, UniProt Q96L34).
T3 sequence (Q96L34 1-752): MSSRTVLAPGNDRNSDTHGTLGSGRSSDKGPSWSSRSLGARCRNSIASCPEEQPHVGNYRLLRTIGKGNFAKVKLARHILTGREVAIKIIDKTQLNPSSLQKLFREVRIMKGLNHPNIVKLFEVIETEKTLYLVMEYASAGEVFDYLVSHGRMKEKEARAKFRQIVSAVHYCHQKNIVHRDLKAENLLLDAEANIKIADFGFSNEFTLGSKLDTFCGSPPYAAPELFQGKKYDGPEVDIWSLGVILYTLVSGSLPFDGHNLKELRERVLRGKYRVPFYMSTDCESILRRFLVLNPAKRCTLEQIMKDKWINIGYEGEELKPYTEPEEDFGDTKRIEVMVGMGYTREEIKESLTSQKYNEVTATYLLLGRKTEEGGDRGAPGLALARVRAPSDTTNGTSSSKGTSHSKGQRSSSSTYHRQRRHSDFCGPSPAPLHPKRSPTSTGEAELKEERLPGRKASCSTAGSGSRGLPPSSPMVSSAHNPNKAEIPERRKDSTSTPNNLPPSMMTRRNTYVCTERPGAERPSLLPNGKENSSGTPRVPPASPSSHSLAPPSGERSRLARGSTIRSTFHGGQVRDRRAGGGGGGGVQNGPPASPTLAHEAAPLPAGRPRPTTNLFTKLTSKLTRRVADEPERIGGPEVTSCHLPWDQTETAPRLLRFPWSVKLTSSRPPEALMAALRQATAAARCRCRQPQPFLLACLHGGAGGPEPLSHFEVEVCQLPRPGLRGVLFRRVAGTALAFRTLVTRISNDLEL
The conditions noted are these: kinase MARK4; NEW KINOMEscan.

Test [6] addresses kinases (KINOMEscan panel) (Homo sapiens, UniProt P22607, G697C). The conditions noted are these: FGFR3(G697C); NEW KINOMEscan.
Test [7] deals with kinases (KINOMEscan panel) (Homo sapiens, UniProt P0C1S8). To be noted: WEE2; NEW KINOMEscan.
Sequence of kinases (KINOMEscan panel) (Homo sapiens, UniProt P0C1S8) (P0C1S8 whole entry): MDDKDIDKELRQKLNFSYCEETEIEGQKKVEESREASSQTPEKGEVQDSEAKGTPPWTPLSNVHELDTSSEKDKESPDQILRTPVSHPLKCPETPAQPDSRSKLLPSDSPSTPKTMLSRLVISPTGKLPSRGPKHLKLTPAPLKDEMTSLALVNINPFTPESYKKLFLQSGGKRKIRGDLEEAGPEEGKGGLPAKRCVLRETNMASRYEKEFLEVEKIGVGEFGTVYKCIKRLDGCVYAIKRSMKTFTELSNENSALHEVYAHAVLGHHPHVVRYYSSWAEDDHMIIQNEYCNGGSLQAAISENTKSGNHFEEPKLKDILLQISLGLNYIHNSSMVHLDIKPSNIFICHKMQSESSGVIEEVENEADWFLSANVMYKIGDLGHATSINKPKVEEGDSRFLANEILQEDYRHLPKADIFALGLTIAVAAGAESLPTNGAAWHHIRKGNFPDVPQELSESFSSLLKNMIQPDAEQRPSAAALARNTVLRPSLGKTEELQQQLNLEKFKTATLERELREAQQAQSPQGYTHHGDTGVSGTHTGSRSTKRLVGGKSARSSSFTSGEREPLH

Sequence of kinases (KINOMEscan panel) (Homo sapiens, UniProt Q9UM73, C1156Y) (Q9UM73 19-1620 C1156Y): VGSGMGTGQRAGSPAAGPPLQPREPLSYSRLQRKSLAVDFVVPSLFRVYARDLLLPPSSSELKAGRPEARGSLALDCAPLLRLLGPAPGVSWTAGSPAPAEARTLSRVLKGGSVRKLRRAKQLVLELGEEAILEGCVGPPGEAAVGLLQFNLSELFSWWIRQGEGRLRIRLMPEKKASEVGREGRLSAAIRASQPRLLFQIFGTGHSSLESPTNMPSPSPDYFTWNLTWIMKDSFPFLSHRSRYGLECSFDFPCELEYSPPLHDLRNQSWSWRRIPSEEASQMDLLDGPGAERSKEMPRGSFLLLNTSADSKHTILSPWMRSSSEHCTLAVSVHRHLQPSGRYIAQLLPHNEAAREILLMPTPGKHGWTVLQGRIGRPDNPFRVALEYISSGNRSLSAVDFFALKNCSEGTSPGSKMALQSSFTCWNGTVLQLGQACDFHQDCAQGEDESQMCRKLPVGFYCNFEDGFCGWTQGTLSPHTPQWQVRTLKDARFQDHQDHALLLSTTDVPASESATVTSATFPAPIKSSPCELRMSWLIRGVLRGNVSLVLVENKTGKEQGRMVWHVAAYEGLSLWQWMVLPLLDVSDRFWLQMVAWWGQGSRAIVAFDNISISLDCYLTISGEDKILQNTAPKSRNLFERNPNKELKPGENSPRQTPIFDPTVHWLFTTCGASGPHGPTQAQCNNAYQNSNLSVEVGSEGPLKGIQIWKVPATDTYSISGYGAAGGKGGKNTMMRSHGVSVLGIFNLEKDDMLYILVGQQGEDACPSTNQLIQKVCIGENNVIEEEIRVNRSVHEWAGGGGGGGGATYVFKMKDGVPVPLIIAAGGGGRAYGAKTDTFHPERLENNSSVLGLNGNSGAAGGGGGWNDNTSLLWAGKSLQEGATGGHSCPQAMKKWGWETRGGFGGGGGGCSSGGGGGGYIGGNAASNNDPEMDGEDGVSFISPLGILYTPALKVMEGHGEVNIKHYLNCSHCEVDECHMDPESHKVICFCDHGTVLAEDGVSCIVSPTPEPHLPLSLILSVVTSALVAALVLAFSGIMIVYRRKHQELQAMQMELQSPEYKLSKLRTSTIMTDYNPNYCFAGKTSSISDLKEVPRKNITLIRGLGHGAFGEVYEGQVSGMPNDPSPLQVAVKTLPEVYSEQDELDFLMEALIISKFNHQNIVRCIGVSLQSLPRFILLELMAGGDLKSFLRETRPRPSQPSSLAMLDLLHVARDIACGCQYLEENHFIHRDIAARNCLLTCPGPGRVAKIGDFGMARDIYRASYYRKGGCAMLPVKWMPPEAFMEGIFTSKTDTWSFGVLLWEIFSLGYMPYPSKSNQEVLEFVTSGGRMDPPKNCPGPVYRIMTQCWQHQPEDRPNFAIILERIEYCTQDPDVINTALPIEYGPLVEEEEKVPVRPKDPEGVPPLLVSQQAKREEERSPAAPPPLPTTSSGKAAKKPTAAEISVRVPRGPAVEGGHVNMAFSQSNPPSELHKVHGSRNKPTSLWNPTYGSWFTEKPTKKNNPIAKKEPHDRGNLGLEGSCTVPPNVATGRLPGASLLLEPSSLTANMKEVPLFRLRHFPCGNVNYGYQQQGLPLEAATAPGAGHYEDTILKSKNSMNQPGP
Sequence of kinases (KINOMEscan panel) (Homo sapiens, UniProt P22607, G697C) (P22607 23-806 G697C): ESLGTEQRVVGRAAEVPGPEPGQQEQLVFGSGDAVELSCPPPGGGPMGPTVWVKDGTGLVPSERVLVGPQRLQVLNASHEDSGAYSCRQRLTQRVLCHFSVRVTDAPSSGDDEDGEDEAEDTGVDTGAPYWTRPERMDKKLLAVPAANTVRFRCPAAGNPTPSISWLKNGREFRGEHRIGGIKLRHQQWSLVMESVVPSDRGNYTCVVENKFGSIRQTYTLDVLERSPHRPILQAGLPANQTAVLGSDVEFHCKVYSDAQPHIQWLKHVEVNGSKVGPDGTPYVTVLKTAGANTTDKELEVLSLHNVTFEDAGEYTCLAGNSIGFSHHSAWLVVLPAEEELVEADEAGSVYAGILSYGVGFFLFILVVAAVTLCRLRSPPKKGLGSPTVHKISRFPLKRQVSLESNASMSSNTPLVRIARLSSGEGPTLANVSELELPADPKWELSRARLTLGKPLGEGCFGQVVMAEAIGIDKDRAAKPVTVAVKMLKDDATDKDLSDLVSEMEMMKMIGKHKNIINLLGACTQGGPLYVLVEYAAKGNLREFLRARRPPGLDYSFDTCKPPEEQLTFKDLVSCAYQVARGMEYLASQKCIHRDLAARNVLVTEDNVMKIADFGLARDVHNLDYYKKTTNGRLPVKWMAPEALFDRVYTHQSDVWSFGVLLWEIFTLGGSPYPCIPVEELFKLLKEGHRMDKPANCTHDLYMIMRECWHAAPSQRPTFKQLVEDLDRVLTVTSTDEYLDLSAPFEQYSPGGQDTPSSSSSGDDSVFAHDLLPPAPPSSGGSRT
Sequence of kinases (KINOMEscan panel) (Homo sapiens, UniProt Q96RR4) (Q96RR4 whole entry): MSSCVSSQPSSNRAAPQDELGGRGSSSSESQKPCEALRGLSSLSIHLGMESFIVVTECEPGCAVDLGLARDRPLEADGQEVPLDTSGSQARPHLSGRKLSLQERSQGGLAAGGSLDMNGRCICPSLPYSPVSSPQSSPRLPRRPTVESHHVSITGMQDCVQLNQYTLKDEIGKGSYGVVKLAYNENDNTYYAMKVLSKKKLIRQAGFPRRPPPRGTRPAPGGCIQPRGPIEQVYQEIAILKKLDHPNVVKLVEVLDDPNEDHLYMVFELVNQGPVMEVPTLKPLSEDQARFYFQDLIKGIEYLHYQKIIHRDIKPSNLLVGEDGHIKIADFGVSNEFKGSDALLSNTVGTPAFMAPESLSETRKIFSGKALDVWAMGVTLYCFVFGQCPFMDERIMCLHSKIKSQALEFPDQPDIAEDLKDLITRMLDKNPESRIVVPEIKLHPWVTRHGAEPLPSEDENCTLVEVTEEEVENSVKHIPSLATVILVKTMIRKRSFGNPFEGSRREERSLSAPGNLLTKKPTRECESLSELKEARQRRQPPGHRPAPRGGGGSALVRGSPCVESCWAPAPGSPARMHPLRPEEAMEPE

Turning to `Cc1cccc(-c2nc(Nc3ccc4nn(C)cc4c3)c3ccccc3n2)n1` [NK167], the “KINOMEscan ALK(C1156Y)” value in test [1] was determined as 11. Also, the “KINOMEscan DYRK2” value in test [2] stood at 0. In test [3], the “KINOMEscan EPHB2” value turned out to be 12. For the same compound, in test [4], the “KINOMEscan CAMKK2” value was found to be 6. For the same compound, the “KINOMEscan MARK4” value in test [5] amounted to 34. Moreover, the “KINOMEscan FGFR3(G697C)” value in test [6] worked out at 6. The “KINOMEscan WEE2” value in test [7] is reported as 0.
Regarding `Cc1cccc(-c2nc(N(C)c3ccc4ncsc4c3)c3ccccc3n2)n1` [NK-161], the “KINOMEscan ALK(C1156Y)” value in test [1] was determined as 2. Moreover, in test [2], the “KINOMEscan DYRK2” value worked out at 12. In addition, the “KINOMEscan EPHB2” value in test [3] turned out to be 15. Moreover, in test [4], the “KINOMEscan CAMKK2” value was 9. Further, the “KINOMEscan MARK4” value in test [5] was determined as 16. For the same compound, the “KINOMEscan FGFR3(G697C)” value in test [6] worked out at 0. Further, the “KINOMEscan WEE2” value in test [7] came out at 5.
